Source: patent US7297700B2, “Bicycloheteroaryl compounds as P2X7 modulators and uses thereof” (Renovis, Inc., priority 2005, dated 2007)

Test system: IL-1β release from THP-1 cells
Experiment: IL-1β Release Assay (Alternate Method), THP-1 cells
Type: cell-based, human
Conditions: at 0.3 μM; THP-1 cells, BzATP-stimulated
How it was run: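 THP-1 cells differentiated 16 h with 100 ng/mL LPS plus 100 ng/mL IFN-γ, reprimed 2 h with 100 ng/mL LPS, pretreated 30 min with compound, then challenged 45 min with 250 uM BzATP (final). Supernatant IL-1β quantified by ELISA; percent inhibition from background-adjusted levels versus untreated cells.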

SMILES	IL-1β % inhibition
O=C(Nc1ncnc2c1CCN(S(=O)(=O)c1c(F)cccc1F)C2)C12CC3CC(CC(C3)C1)C2 [Compound 540]	+ (compound exhibited 0-25% inhibition at 0.3 μM)
Cc1ccc(S(=O)(=O)N2CCc3c(ncnc3NC(=O)C34CC5CC(CC(C5)C3)C4)C2)cc1Cl [Compound 541]	++++ (compound exhibited 75% or greater inhibition at 0.3 μM)
O=C(Nc1ncnc2c1CCN(S(=O)(=O)c1cc(Cl)cc(Cl)c1)C2)C12CC3CC(CC(C3)C1)C2 [Compound 542]	+ (compound exhibited 0-25% inhibition at 0.3 μM)
O=C(Nc1ncnc2c1CCN(S(=O)(=O)c1ccc(F)cc1F)C2)C12CC3CC(CC(C3)C1)C2 [Compound 543]	++ (compound exhibited 25-50% inhibition at 0.3 μM)
O=C(Nc1ncnc2c1CCN(S(=O)(=O)c1ccc(F)cc1Cl)C2)C12CC3CC(CC(C3)C1)C2 [Compound 545]	++ (compound exhibited 25-50% inhibition at 0.3 μM)
Cc1ccc(F)cc1S(=O)(=O)N1CCc2c(ncnc2NC(=O)C23CC4CC(CC(C4)C2)C3)C1 [Compound 546]	+ (compound exhibited 0-25% inhibition at 0.3 μM)
COc1ccc(C)cc1S(=O)(=O)N1CCc2c(ncnc2NC(=O)C23CC4CC(CC(C4)C2)C3)C1 [Compound 548]	+ (compound exhibited 0-25% inhibition at 0.3 μM)
COc1ccc(OC)c(S(=O)(=O)N2CCc3c(ncnc3NC(=O)C34CC5CC(CC(C5)C3)C4)C2)c1 [Compound 549]	++ (compound exhibited 25-50% inhibition at 0.3 μM)
Cc1cc(C)cc(S(=O)(=O)N2CCc3c(ncnc3NC(=O)C34CC5CC(CC(C5)C3)C4)C2)c1 [Compound 550]	+ (compound exhibited 0-25% inhibition at 0.3 μM)
CC(CCN1CCc2c(ncnc2NC(=O)C23CC4CC(CC(C4)C2)C3)C1)CC(C)(C)C (stereo not shown) [Compound 552]	++++ (compound exhibited 75% or greater inhibition at 0.3 μM)
O=C(Nc1ncnc2c1CCN(CC(c1ccccc1)c1ccccc1)C2)C12CC3CC(CC(C3)C1)C2 [Compound 553]	++ (compound exhibited 25-50% inhibition at 0.3 μM)
CC(CN1CCc2c(ncnc2NC(=O)C23CC4CC(CC(C4)C2)C3)C1)c1ccccc1 (stereo not shown) [Compound 554]	++++ (compound exhibited 75% or greater inhibition at 0.3 μM)
CCCN1CCc2c(ncnc2NC(=O)C23CC4CC(CC(C4)C2)C3)C1 [Compound 555]	+ (compound exhibited 0-25% inhibition at 0.3 μM)
O=C(Nc1ncnc2c1CCN(CC1CCCCC1)C2)C12CC3CC(CC(C3)C1)C2 [Compound 556]	+ (compound exhibited 0-25% inhibition at 0.3 μM)
O=C(Nc1ncnc2c1CCN(CC1CC1)C2)C12CC3CC(CC(C3)C1)C2 [Compound 557]	+ (compound exhibited 0-25% inhibition at 0.3 μM)
CCCCCN1CCc2c(ncnc2NC(=O)C23CC4CC(CC(C4)C2)C3)C1 [Compound 558]	++ (compound exhibited 25-50% inhibition at 0.3 μM)
O=C(Nc1ncnc2c1CCN(CCCc1ccccc1)C2)C12CC3CC(CC(C3)C1)C2 [Compound 559]	++ (compound exhibited 25-50% inhibition at 0.3 μM)
O=C(Nc1ncnc2c1CCN(Cc1cccnc1)C2)C12CC3CC(CC(C3)C1)C2 [Compound 560]	++ (compound exhibited 25-50% inhibition at 0.3 μM)
COc1ccc(CN2CCc3c(ncnc3NC(=O)C34CC5CC(CC(C5)C3)C4)C2)cc1 [Compound 562]	+ (compound exhibited 0-25% inhibition at 0.3 μM)
O=C(Nc1ncnc2c1CCN(Cc1ccc3c(c1)OCO3)C2)C12CC3CC(CC(C3)C1)C2 [Compound 564]	++++ (compound exhibited 75% or greater inhibition at 0.3 μM)
O=C(Nc1ncnc2c1CCN(Cc1ccc3ccccc3c1)C2)C12CC3CC(CC(C3)C1)C2 [Compound 565]	++++ (compound exhibited 75% or greater inhibition at 0.3 μM)
COc1ccc(CN2CCc3c(ncnc3NC(=O)C34CC5CC(CC(C5)C3)C4)C2)cc1OC [Compound 566]	+ (compound exhibited 0-25% inhibition at 0.3 μM)
Cc1ccc2occ(CN3CCc4c(ncnc4NC(=O)C45CC6CC(CC(C6)C4)C5)C3)c(=O)c2c1 [Compound 567]	++ (compound exhibited 25-50% inhibition at 0.3 μM)
O=C(Nc1ncnc2c1CCN(Cc1cccc(Oc3ccccc3)c1)C2)C12CC3CC(CC(C3)C1)C2 [Compound 568]	+ (compound exhibited 0-25% inhibition at 0.3 μM)
O=C(Nc1ncnc2c1CCN(Cc1ccc(Cl)cc1Cl)C2)C12CC3CC(CC(C3)C1)C2 [Compound 570]	++ (compound exhibited 25-50% inhibition at 0.3 μM)
N#Cc1cccc(CN2CCc3c(ncnc3NC(=O)C34CC5CC(CC(C5)C3)C4)C2)c1 [Compound 571]	++++ (compound exhibited 75% or greater inhibition at 0.3 μM)
CC(C)(C)c1ccc(CN2CCc3c(ncnc3NC(=O)C34CC5CC(CC(C5)C3)C4)C2)cc1 [Compound 572]	++++ (compound exhibited 75% or greater inhibition at 0.3 μM)
O=C(Nc1ncnc2c1CCN(Cc1ccc(Oc3ccccc3)cc1)C2)C12CC3CC(CC(C3)C1)C2 [Compound 576]	+++ (compound exhibited 50-75% inhibition at 0.3 μM)

SMILES	IL-1β % inhibition
CC(C)CCN1CCc2c(ncnc2NC(=O)C23CC4CC(CC(C4)C2)C3)C1 [Compound 583]	+ (compound exhibited 0-25% inhibition at 0.3 μM)
COc1cccc(CN2CCc3c(ncnc3NC(=O)C34CC5CC(CC(C5)C3)C4)C2)c1 [Compound 584]	+ (compound exhibited 0-25% inhibition at 0.3 μM)
Cc1ccc(CN2CCc3c(ncnc3NC(=O)C34CC5CC(CC(C5)C3)C4)C2)cc1C [Compound 585]	++ (compound exhibited 25-50% inhibition at 0.3 μM)
COc1cc(CN2CCc3c(ncnc3NC(=O)C34CC5CC(CC(C5)C3)C4)C2)ccc1OCc1ccccc1 [Compound 588]	++ (compound exhibited 25-50% inhibition at 0.3 μM)
O=C(Nc1ncnc2c1CCN(Cc1ccc3c(c1)OCCO3)C2)C12CC3CC(CC(C3)C1)C2 [Compound 589]	+++ (compound exhibited 50-75% inhibition at 0.3 μM)
O=C(Nc1ncnc2c1CCN(Cc1ccc(Cl)c(Cl)c1)C2)C12CC3CC(CC(C3)C1)C2 [Compound 590]	+ (compound exhibited 0-25% inhibition at 0.3 μM)
COc1ccc(CN2CCc3c(ncnc3NC(=O)C34CC5CC(CC(C5)C3)C4)C2)cc1OCc1ccccc1 [Compound 592]	++++ (compound exhibited 75% or greater inhibition at 0.3 μM)
COc1ccc(CN2CCc3c(ncnc3NC(=O)C34CC5CC(CC(C5)C3)C4)C2)cc1O [Compound 593]	+ (compound exhibited 0-25% inhibition at 0.3 μM)
COc1cc(CN2CCc3c(ncnc3NC(=O)C34CC5CC(CC(C5)C3)C4)C2)cc(Br)c1OC [Compound 594]	+ (compound exhibited 0-25% inhibition at 0.3 μM)
N#Cc1cc(CN2CCc3c(ncnc3NC(=O)C34CC5CC(CC(C5)C3)C4)C2)ccc1F [Compound 595]	+ (compound exhibited 0-25% inhibition at 0.3 μM)
O=C(Nc1ncnc2c1CCN(Cc1cccc3c1OCO3)C2)C12CC3CC(CC(C3)C1)C2 [Compound 596]	+++ (compound exhibited 50-75% inhibition at 0.3 μM)
O=C(Nc1ncnc2c1CCN(Cc1ccc(Br)cc1)C2)C12CC3CC(CC(C3)C1)C2 [Compound 597]	+++ (compound exhibited 50-75% inhibition at 0.3 μM)
O=C(Nc1ncnc2c1CCN(Cc1cccc(Cl)c1)C2)C12CC3CC(CC(C3)C1)C2 [Compound 598]	+ (compound exhibited 0-25% inhibition at 0.3 μM)
O=C(Nc1ncnc2c1CCN(Cc1cc3c(cc1Cl)OCO3)C2)C12CC3CC(CC(C3)C1)C2 [Compound 599]	+ (compound exhibited 0-25% inhibition at 0.3 μM)
O=C(Nc1ncnc2c1CCN(Cc1ccc(Cl)cc1)C2)C12CC3CC(CC(C3)C1)C2 [Compound 601]	+++ (compound exhibited 50-75% inhibition at 0.3 μM)
Cc1ccc(CN2CCc3c(ncnc3NC(=O)C34CC5CC(CC(C5)C3)C4)C2)cc1 [Compound 602]	++ (compound exhibited 25-50% inhibition at 0.3 μM)
N#Cc1ccc(CN2CCc3c(ncnc3NC(=O)C34CC5CC(CC(C5)C3)C4)C2)cc1 [Compound 603]	+ (compound exhibited 0-25% inhibition at 0.3 μM)
O=C(Nc1ncnc2c1CCN(Cc1ccc(C(F)(F)F)cc1)C2)C12CC3CC(CC(C3)C1)C2 [Compound 604]	++++ (compound exhibited 75% or greater inhibition at 0.3 μM)
O=C(Nc1ncnc2c1CCN(Cc1cccc(F)c1)C2)C12CC3CC(CC(C3)C1)C2 [Compound 605]	+ (compound exhibited 0-25% inhibition at 0.3 μM)
Cc1cccc(CN2CCc3c(ncnc3NC(=O)C34CC5CC(CC(C5)C3)C4)C2)c1 [Compound 606]	+ (compound exhibited 0-25% inhibition at 0.3 μM)
O=C(Nc1ncnc2c1CCN(Cc1ccc(F)cc1)C2)C12CC3CC(CC(C3)C1)C2 [Compound 607]	++++ (compound exhibited 75% or greater inhibition at 0.3 μM)
COc1ccc(CN2CCc3c(ncnc3NC(=O)C34CC5CC(CC(C5)C3)C4)C2)c(OC)c1 [Compound 608]	+ (compound exhibited 0-25% inhibition at 0.3 μM)
O=C(Nc1ncnc2c1CCN(Cc1ccncc1)C2)C12CC3CC(CC(C3)C1)C2 [Compound 610]	+ (compound exhibited 0-25% inhibition at 0.3 μM)
O=C(Nc1ncnc2c1CCN(Cc1ccc(Cl)c(F)c1)C2)C12CC3CC(CC(C3)C1)C2 [Compound 611]	+++ (compound exhibited 50-75% inhibition at 0.3 μM)
O=C(Nc1ncnc2c1CCN(Cc1ccc(C(F)(F)F)cc1F)C2)C12CC3CC(CC(C3)C1)C2 [Compound 612]	++++ (compound exhibited 75% or greater inhibition at 0.3 μM)
O=C(Nc1ncnc2c1CCN(Cc1ccc(Br)nc1)C2)C12CC3CC(CC(C3)C1)C2 [Compound 613]	+ (compound exhibited 0-25% inhibition at 0.3 μM)
O=C(Nc1ncnc2c1CCN(Cc1cccc(Br)c1)C2)C12CC3CC(CC(C3)C1)C2 [Compound 614]	+ (compound exhibited 0-25% inhibition at 0.3 μM)
